# Test results as given in publication PMC11372076, “A dual inhibitor of PIP5K1C and PIKfyve prevents SARS-CoV-2 entry into cells” (Experimental & Molecular Medicine, 2024).
# Tests used:
# PI4KA (PI4K alpha) = test: SelectScreen Kinase Profiling Service (PIPK profiling); type: biochemical; conditions: 1 μM UNI418; [ATP] 10 μM
# Text: (§1) UNI418 has a core structure consisting of 4-quinazolinamine (Fig. 1a, green), which is often found in kinase inhibitors. […] The phosphoinositide (PI) system is a crucial regulatory mechanism in membrane trafficking and is tightly regulated through phosphorylation cascades by multiple phosphatidylinositol phosphate kinases (PIPKs)[30]. We hypothesized that UNI418 may inhibit PIPK(s) and performed PIPK profiling analysis. […] To test whether UNI418 interacts with PIP5K1C and PIKfyve, we performed a CETSA, which determines the characteristics of protein stabilization upon ligand binding to the target protein[31]. UNI418- or DMSO-treated cell lysates were incubated at different temperatures, and the presence of the target protein in the soluble fraction was analyzed by Western blotting (Fig. 1c).
# (§2) Fig. 1 UNI418 specifically targets PIP5K1 and PIKfyve. a Chemical structure of UNI418. The 4-quinazolinamine core is highlighted in green. b Table of the kinase profiling analysis. Inhibition of several kinases was determined at a 1 μM concentration of UNI418 and analyzed by the SelectScreen Kinase Profiling Service (Thermo Fisher Scientific). c Cellular thermal shift assay. Ectopically expressed GFP-PIP5K1C and GFP-PIKfyve were heated to the indicated temperatures with/without UNI418, and the presence of protein in the soluble fraction was analyzed by Western blot analysis. TEXT PRINTED IN THE PICTURE: (b) UNI418: % Inhibition (mean): 11 ([ATP] Tested (μM): 10; Kinase Tested: PI4K2A (PI4K2 alpha)); % Inhibition (mean): 4 ([ATP] Tested (μM): 10; Kinase Tested: PI4K2B (PI4K2 beta)); % Inhibition (mean): -6 ([ATP] Tested (μM): 10; Kinase Tested: PI4KA (PI4K alpha)); % Inhibition (mean): 48 ([ATP] Tested (μM): Km app; Kinase Tested: PI4KB (PI4K beta)); % Inhibition (mean): 20 ([ATP] Tested (μM): 10; Kinase Tested: PIK3C2B (PI3K-C2 beta)); % Inhibition (mean): 22 ([ATP] Tested (μM): 10; Kinase Tested: PIK3C2G (PI3K-C2 gamma)); % Inhibition (mean): 4 ([ATP] Tested (μM): 100; Kinase Tested: PIK3C3 (hVPS34)); % Inhibition (mean): 8 ([ATP] Tested (μM): 10; Kinase Tested: PIK3CA/PIK3R3 (p110 alpha/p55 gamma)); % Inhibition (mean): 7 ([ATP] Tested (μM): 10; Kinase Tested: PIK3CB/PIK3R2 (p110 beta/p85 beta)); % Inhibition (mean): 9 ([ATP] Tested (μM): 10; Kinase Tested: PIP4K2A); % Inhibition (mean): 67 ([ATP] Tested (μM): 10; Kinase Tested: PIP5K1A); % Inhibition (mean): 93 ([ATP] Tested (μM): 10; Kinase Tested: PIP5K1B); % Inhibition (mean): 93 ([ATP] Tested (μM): 10; Kinase Tested: PIP5K1C); % Inhibition (mean): 100 ([ATP] Tested (μM): 100; Kinase Tested: PIKFYVE) | (b) Apilimod: % Inhibition (mean): 100 ([ATP] Tested (μM): 100; Kinase Tested: PIKFYVE) […]
# [1] = system: PIK3CB/PIK3R2 (p110 beta/p85 beta); test: as above; type: biochemical; conditions: 1 μM UNI418; [ATP] 10 μM
# Text: as §1, §2
# PI4KB (PI4K beta) = test: as above; type: biochemical; conditions: 1 μM UNI418; [ATP] Km app
# Text: as §1, §2
# PIK3C3 (hVPS34) = test: as above; type: biochemical; conditions: 1 μM UNI418; [ATP] 100 μM
# Text: as §1, §2
# PI4K2A (PI4K2 alpha) = test: as above; type: biochemical; conditions: 1 μM UNI418; [ATP] 10 μM
# Text: as §1, §2
# PIK3C2G (PI3K-C2 gamma) = test: as above; type: biochemical; conditions: 1 μM UNI418; [ATP] 10 μM
# Text: as §1, §2
# [2] = system: PIK3CA/PIK3R3 (p110 alpha/p55 gamma); test: as above; type: biochemical; conditions: 1 μM UNI418; [ATP] 10 μM
# Text: as §1, §2
# PI4K2B (PI4K2 beta) = test: as above; type: biochemical; conditions: 1 μM UNI418; [ATP] 10 μM
# Text: as §1, §2
# PIP4K2A = test: as above; type: biochemical; conditions: 1 μM UNI418; [ATP] 10 μM
# Text: as §1, §2
# PIK3C2B (PI3K-C2 beta) = test: as above; type: biochemical; conditions: 1 μM UNI418; [ATP] 10 μM
# Text: as §1, §2
# [3] = system: SARS-CoV-2 spike protein (Spike-HexaPro); type: cell-based
# VSV-G-pseudotyped virus = type: cell-based
smiles,measurement,setting,value
"c1ccc(-c2cc(Nc3nc(-c4ccncc4)nc4ccccc34)n[nH]2)cc1 [UNI418, N -(5-phenyl-1 H -pyrazol-3-yl)-2-(4-pyridinyl)-4-quinazolinamine]",% Inhibition (mean),PI4KA (PI4K alpha),-6%
same,% Inhibition (mean),[1],7%
same,% Inhibition (mean),PI4KB (PI4K beta),48%
same,% Inhibition (mean),PIK3C3 (hVPS34),4%
same,% Inhibition (mean),PI4K2A (PI4K2 alpha),11%
same,% Inhibition (mean),PIK3C2G (PI3K-C2 gamma),22%
same,% Inhibition (mean),[2],8%
same,% Inhibition (mean),PI4K2B (PI4K2 beta),4%
same,% Inhibition (mean),PIP4K2A,9%
same,% Inhibition (mean),PIK3C2B (PI3K-C2 beta),20%
same,delay in generation of the mature Spike-HexaPro cleavage product,[3],3 h
same,pseudotyped virus entry,VSV-G-pseudotyped virus,unaffected
